Like-named read-outs stand apart in the source and are kept apart here.
Legend:
Assay type in all cases: cell-based
AhR [1] = target: T1, AhR (Homo sapiens, UniProt P35869); experiment: In vitro assay 1: XRE-luciferase reporter assay, antagonism in human cell line (HepG2); conditions: HepG2 XRE-luciferase, cells treated with kynurenine 200 μM (no *), 6 hours; read-out: Assay 1: AhR-Luc Human Antagonism (IC50)
T1 construct: host or cells: HepG2
T1 sequence (P35869 11-848): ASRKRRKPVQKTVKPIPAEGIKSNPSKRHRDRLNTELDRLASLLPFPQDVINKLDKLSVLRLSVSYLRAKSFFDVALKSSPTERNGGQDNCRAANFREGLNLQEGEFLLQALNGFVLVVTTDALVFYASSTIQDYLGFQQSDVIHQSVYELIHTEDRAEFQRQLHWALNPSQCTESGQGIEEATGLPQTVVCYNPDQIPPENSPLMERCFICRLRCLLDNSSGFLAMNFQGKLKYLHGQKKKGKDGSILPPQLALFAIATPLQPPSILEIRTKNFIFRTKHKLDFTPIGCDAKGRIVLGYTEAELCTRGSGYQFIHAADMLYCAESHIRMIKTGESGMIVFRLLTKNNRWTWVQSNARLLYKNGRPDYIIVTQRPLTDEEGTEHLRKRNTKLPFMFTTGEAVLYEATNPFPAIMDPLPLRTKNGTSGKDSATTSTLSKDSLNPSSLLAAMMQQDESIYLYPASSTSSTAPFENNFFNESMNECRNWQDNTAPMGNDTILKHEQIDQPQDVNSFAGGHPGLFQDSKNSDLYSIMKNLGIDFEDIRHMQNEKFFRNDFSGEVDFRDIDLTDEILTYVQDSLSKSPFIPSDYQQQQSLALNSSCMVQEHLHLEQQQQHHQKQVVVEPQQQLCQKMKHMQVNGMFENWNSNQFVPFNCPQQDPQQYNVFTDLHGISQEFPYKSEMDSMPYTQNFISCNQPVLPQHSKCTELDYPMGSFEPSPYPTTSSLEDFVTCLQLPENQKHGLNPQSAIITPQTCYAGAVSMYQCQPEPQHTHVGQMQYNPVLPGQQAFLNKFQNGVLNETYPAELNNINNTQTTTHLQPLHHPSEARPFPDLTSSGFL
How it was run: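 HepG2 cells carrying XRE-firefly luciferase (transient or stable) plus constitutive Nano-Luc control, stimulated 6 h with kynurenine (50 or 200 μM) with or without compound. Firefly/Nano-Luc ratio normalized to kynurenine-alone (maximum) and vehicle (minimum); IC50 by four-parameter nonlinear regression.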

AhR [2] = target: T2, AhR (Mus musculus, UniProt P30561); experiment: In vitro assay 2: XRE-luciferase reporter assay, antagonism in mouse cell line (Hepa1c1c7); conditions: Hepa1c1c7 XRE-Luc, 6 hours
T2 sequence (P30561 1-848): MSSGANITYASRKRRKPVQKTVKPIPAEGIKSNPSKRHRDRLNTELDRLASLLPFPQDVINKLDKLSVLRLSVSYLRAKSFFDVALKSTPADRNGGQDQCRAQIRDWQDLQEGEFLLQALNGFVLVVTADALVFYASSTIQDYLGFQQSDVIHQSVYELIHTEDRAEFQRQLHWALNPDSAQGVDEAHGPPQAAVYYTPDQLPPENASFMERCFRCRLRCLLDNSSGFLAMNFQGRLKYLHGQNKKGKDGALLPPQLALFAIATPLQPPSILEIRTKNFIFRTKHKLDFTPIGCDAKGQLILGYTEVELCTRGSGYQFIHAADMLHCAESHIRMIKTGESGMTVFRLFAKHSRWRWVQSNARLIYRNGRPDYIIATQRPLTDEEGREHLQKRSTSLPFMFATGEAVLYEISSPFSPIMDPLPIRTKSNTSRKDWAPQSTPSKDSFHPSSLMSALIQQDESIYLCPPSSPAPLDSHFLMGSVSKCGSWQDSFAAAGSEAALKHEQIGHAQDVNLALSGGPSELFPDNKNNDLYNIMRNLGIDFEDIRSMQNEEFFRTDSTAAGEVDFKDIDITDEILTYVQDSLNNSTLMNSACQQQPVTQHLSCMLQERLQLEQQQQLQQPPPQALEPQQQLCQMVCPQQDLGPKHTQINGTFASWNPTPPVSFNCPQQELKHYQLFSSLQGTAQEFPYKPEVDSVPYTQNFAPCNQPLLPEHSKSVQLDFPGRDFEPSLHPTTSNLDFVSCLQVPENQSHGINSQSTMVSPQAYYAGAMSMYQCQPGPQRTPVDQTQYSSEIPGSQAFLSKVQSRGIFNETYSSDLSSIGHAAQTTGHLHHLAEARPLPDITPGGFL
Description: (§1) In Vitro XRE-Luciferase Reporter Assay (In Vitro Assay 1, 2, 3)
(§2) AhR activation leads the induction of target gene expression such as CYP1A1 and CYP1B1 by AhR binding to AhR-responsive DNA elements also known as xenobiotics responsive elements (XRE). The assay for measuring AhR activity herein is the luciferase assay using cell lines transfected with luciferase reporter plasmid containing XREs at the upstream of the reporter gene. Cells transfected with XRE-luciferase reporter (XRE-Luc) plasmid drive luciferase activity reflecting activation and inhibition of AhR in the cells. In addition to transfection with XRE-reporter vector, cells were co-transfected with Nano-luciferase reporter gene construct (Nano-Luc) containing constitutively active promoter as internal control. Kynurenine (an endogenous AhR agonist) was used to stimulate cells to test antagonistic properties of the compounds. The half-maximal inhibitory concentration (IC50) or half-maximal effective concentration (EC50) value was calculated using nonlinear regression (four parameters) with Prism8.0 software (GraphPad).
In Vitro Assay 2: Antagonism in Mouse Cell Line
Hepa1c1c7 (murine liver cancer cell line) cells co-transfected with XRE-Luc and Nano-Luc plasmids were plated in complete medium and incubated overnight at 37° C. in a CO2 incubator. Following incubation, cells were treated with AhR activating ligands such as kynurenic acid, kynurenine(#) with or without test compounds for 6 hours. Firefly luciferase and Nano-luciferase activity was measured using Nano-glo Luciferase kit (Promega) and relative luciferase activity (Firefly/Nano-Luc) was used to calculate IC50 values. The relative luciferase activity was further normalized with agonists alone group as the maximum control and the vehicle group as the minimum control. (IC50 Values are grouped as A, B, C and D, whereby A: IC50<0.01 μM; B: 0.01<IC50<0.1 μM; C: 0.1<IC50<1.0 μM; D: IC50>1.0 μM)

AhR [3] = target: T1, AhR; experiment: In vitro assay 4: endogenous AhR activity assay (CYP1A1 and CYP1B1 mRNA, qRT-PCR, HepG2 cells); conditions: TCDD 10 nM with compound 123 nM, 4 hours, mRNA relative to β-actin, read-out: CYP1A1 (% Inhibition)
Experimental: In Vitro Assay 4: Endogenous AhR Activity Assay
HepG2 cells were seeded in 12-well plate (3×10^5 cells/well). A day after seeding, the cells were treated with TCDD (10 nM) alone or with compounds (123 nM) for 4 hours. Total RNA was extracted using Trizol (Thermo Fisher Scientific). cDNA synthesis and quantitative RT-PCR (qRT-PCR) assays were performed using PrimeScript™ RT Master Mix (TAKARA) and TB Green™ Premix Ex Taq™ II (TAKARA) in accordance with manufacturer's instruction. For the measurement of endogenous AhR activity, relative mRNA levels of CYP1A1 and CYP1B1 were quantitated relative to β(beta)-actin mRNA by the comparative Ct (ΔΔCt) method. The percent inhibitions were calculated according to: […]

AhR [4] = target: T1, AhR; experiment: In vitro assay 3: XRE-luciferase reporter assay, agonism in human cell line (HepG2); conditions: HepG2 XRE-Luc, tryptophan free medium, test compound alone, 6 hours
Description: as §1, §2
In Vitro Assay 3: Agonism in Human Cell Line
HepG2 (human hepatoma cell line) cells co-transfected with XRE-Luc and Nano-Luc plasmids were plated in tryptophan free medium containing 1% of dialyzed fetal bovine serum and incubated overnight at 37° C. in a CO2 incubator. After 24 hours, cells were treated for 6 hours with test compounds or not. Firefly luciferase and Nano-luciferase activity was measured using Nano-glo Luciferase kit (Promega) and relative luciferase activity (Firefly/Nano-Luc) was used to calculate EC50 values. As a positive control, cells were incubated with TCDD. (EC50 Values are grouped as A, B, C and D, whereby A: EC50<0.1 μM; B: 0.1<EC50<1.0 μM; C: 1.0<EC50<10 μM; D: EC50>10 μM)

[5] = cells treated with kynurenine (#)
[6] = AhR activating ligand such as kynurenic acid (no #)
[7] = read-out: Assay 3: AhR-Luc Human Agonism (EC50)
[8] = read-out: Assay 3: AhR-Luc Human Agonism (EC50, nM), class in brackets

| SMILES | IC50 (AhR [1]) [nM] | IC50 (AhR [2]; [5]) [nM] | inhibition at 0.123 µM (AhR [3]) [%] | IC50 (AhR [2]; [6]) [nM] | EC50 (AhR [4]; [7]) [nM] | EC50 (AhR [4]; [8]) [nM] |
| --- | --- | --- | --- | --- | --- | --- |
| O=c1c2cc(-c3ccc(C(F)(F)F)cc3)nc(-c3cccnc3)c2ncn1CC(O)CO (centres unmarked) [Example 66, 3-(2,3-dihydroxypropyl)-8-(pyridin-3-yl)-6-(4-(trifluoromethyl)phenyl)pyrido[3,4-d]pyrimidin-4(3H)-one] | < 10 | 10 to 100 | 100 | – | – | – |
| O=c1c2cc(-c3ccc(Cl)cc3)nc(-c3cccnc3)c2ncn1[C@H]1CC[C@H](O)CC1 [Example 56, 6-(4-chlorophenyl)-3-((1r,4r)-4-hydroxycyclohexyl)-8-(pyridin-3-yl)pyrido[3,4-d]pyrimidin-4(3H)-one] | < 10 | – | 101 | < 10 | > 30000 | > 10000 |
| CC(=O)N1CCC(n2cnc3c(-c4cccnc4)nc(-c4ccc(Cl)cc4)cc3c2=O)CC1 [Example 96, 3-(1-acetylpiperidin-4-yl)-6-(4-chlorophenyl)-8-(pyridin-3-yl)pyrido[3,4-d]pyrimidin-4(3H)-one] | < 10 | – | 99.9 | < 10 | > 30000 | > 10000 |
| CC(CO)n1cnc2c(-c3cccnc3)nc(-c3ccc(N4CCOCC4)cc3)cc2c1=O (centres unmarked) [Example 75, 3-(1-hydroxypropan-2-yl)-6-(4-morpholinophenyl)-8-(pyridin-3-yl)pyrido[3,4-d]pyrimidin-4(3H)-one] | < 10 | 10 to 100 | 101 | – | > 30000 | > 10000 |
| CC(=O)NCC(C)n1cnc2c(-c3cccnc3)nc(-c3ccc(Cl)cc3)cc2c1=O (centres unmarked) [Example 88, N-(2-(6-(4-chlorophenyl)-4-oxo-8-(pyridin-3-yl)pyrido[3,4-d]pyrimidin-3(4H)-yl)propyl)acetamide] | < 10 | 10 to 100 | 99.2 | – | > 30000 | > 10000 |
